Assay results as given in ChEMBL document CHEMBL3352337, “Scaffold-switching: an exploration of 5,6-fused bicyclic heteroaromatics systems to afford antituberculosis activity akin to the imidazo[1,2-a]pyridine-3-carboxylates” (Bioorg Med Chem Lett, 2014).
≈ marks a conversion by molar mass, not a printed value.

System: Mycobacterium tuberculosis variant bovis BCG
Assay: Antimycobacterial activity against Mycobacterium bovis BCG ATCC 35734 in 7H12 medium after 6 days and 18 hrs after adding resazurin dye/Tween 80 by Microplate Alamar Blue assay
Assay type: functional

| SMILES | MIC [µM] |
| --- | --- |
| Cc1ccc2c(C(=O)NCc3ccccc3)c(C)[nH]c2c1 | > 128 |
| Cc1ccn2c(C(=O)NCc3ccccc3)nnc2c1 | > 128 |
| Cc1cnc2nc(C)c(C(=O)NCc3ccccc3)n2c1 | 7.8 (≈ 2.19 µg/mL) |
| COc1c(N2C[C@@H]3CCCN[C@@H]3C2)c(F)cc2c(=O)c(C(=O)O)cn(C3CC3)c12 [MOXIFLOXACIN] | 0.06 (≈ 0.0241 µg/mL) |
| CO[C@H]1/C=C/O[C@@]2(C)Oc3c(C)c(O)c4c(O)c(c(/C=N/N5CCN(C)CC5)c(O)c4c3C2=O)NC(=O)/C(C)=C\C=C\[C@H](C)[C@H](O)[C@@H](C)[C@@H](O)[C@@H](C)[C@H](OC(C)=O)[C@@H]1C [RIFAMPIN] | < 0.004 |
| Cc1cc(C)n2nc(C(=O)NCc3ccccc3)nc2n1 | > 128 |
| Cc1ccc2nc(C)c(C(=O)NCc3ccccc3)n2c1 | 0.96 (≈ 0.268 µg/mL) |
| Cc1ccc2c(C(=O)NCc3ccccc3)n[nH]c2c1 | > 128 |
| Cc1ccc2nc(C)c(C(=O)NCc3ccccc3)n2n1 | > 128 |
| Cc1ccn2c(C)c(C(=O)NCc3ccccc3)nc2c1 | > 128 |
| NNC(=O)c1ccncc1 [ISONIAZID] | 0.41 (≈ 0.0562 µg/mL) |
